Measured values taken from US9918968B2, “Rapamycin analogs targeting proteasome function in the treatment of cancer” (THE BOARD OF REGENTS OF THE UNIVERSITY OF TEXAS SYSTEM, priority 2013, dated 2018).

Assays:
[1] = biological target: T1, human 20S proteasome, ChT-L peptidase; assay: ChT-L peptidase activity of purified human 20S proteasome (Suc-LLVY-MCA); type: biochemical; settings: for IC50: latent human 20S proteasome
T1 construct: purchased Enzo LifeSciences
Method: Human purified proteasome complexes were purchased from Enzo LifeSciences or Boston Biochemicals (19S complex). BODIPY-casein (Invitrogen/Molecular Probes) was used as a model protein substrate, with increasing fluorescence of BODIPY labeled peptide products of degradation monitored for up to 8 hours at 37° C. The peptidase activity of the enzyme was measured as arbitrary intensity units of the released fluorescent group 7-amino-4-methylcoumarin (AMC) from peptide substrates, as described. […] Proteasome substrates, rapamycin, its derivatives, and competing peptides were stocked in DMSO and diluted 100-fold in the reaction mixtures. The Rpt5 and PA200 C-terminal peptides were synthesized in the Departmental Peptide Synthesis Core using the standard SPPS chemistry. To activate the latent 20S proteasome, 0.005% (final concentration) of sodium dodecyl sulfate (SDS) was used. […] The fluorescence of products was monitored every 2 minutes with a Fluoroskan Ascent plate reader. Reaction rates were calculated from smoothed linear segment of kinetic curves using OriginPro 8.6 (OriginLabs, Northampton, Mass.). For the determination of an inhibition type, at least six distinct substrate concentrations and two inhibitor concentrations were used. The kinetic parameters of inhibition were analyzed in terms of the Michaelis-Menten formalism using the enzyme kinetic module of SigmaPlot v.12 (Systat Software, Inc, San Jose, Calif.) to perform the respective calculations. […]
The in vitro assay for testing the ChT-L peptidase activity of the purified human 20S proteasome was performed as described above.

[2] = biological target: T2, human 20S proteasome, PGPH peptidase; assay: PGPH peptidase activity of purified human 20S proteasome (CbzLLE-MCA); type: biochemical; settings: for IC50: latent human 20S proteasome
T2 construct: purchased Enzo LifeSciences
Method: (§1) Human purified proteasome complexes were purchased from Enzo LifeSciences or Boston Biochemicals (19S complex). BODIPY-casein (Invitrogen/Molecular Probes) was used as a model protein substrate, with increasing fluorescence of BODIPY labeled peptide products of degradation monitored for up to 8 hours at 37° C. The peptidase activity of the enzyme was measured as arbitrary intensity units of the released fluorescent group 7-amino-4-methylcoumarin (AMC) from peptide substrates, as described. The common substrates specific for the three kinds of active sites: succinyl-LeuLeuValTyr-7-amido-4-methylcoumarin (Suc-LLVY-MCA; for the ChT-L activity; Bachem), butoxycarbonyl-LeuArgArg-MCA (BocLRR-MCA; for T-L; Bachem) and carbobenzoxy-LeuLeuGlu-MCA (CbzLLE-MCA; for PGPH; Enzo Life Sciences International, Inc.) were used at 100 μM final concentrations, unless stated otherwise (Gaczynska and Osmulski, 2005). Proteasome substrates, rapamycin, its derivatives, and competing peptides were stocked in DMSO and diluted 100-fold in the reaction mixtures. The Rpt5 and PA200 C-terminal peptides were synthesized in the Departmental Peptide Synthesis Core using the standard SPPS chemistry. To activate the latent 20S proteasome, 0.005% (final concentration) of sodium dodecyl sulfate (SDS) was used. The reactions were carried out in 96 well plates, with 2.3 nM proteasome and other components as indicated dissolved in 50 mM Tris-HCl buffer (pH 8.0) and incubated at 37° C. for up to 1 hour. The fluorescence of products was monitored every 2 minutes with a Fluoroskan Ascent plate reader. Reaction rates were calculated from smoothed linear segment of kinetic curves using OriginPro 8.6 (OriginLabs, Northampton, Mass.). For the determination of an inhibition type, at least six distinct substrate concentrations and two inhibitor concentrations were used. The kinetic parameters of inhibition were analyzed in terms of the Michaelis-Menten formalism using the enzyme kinetic module of SigmaPlot v.12 (Systat Software, Inc, San Jose, Calif.) to perform the respective calculations.
(§2) IC50 values (a drug concentration causing 50% inhibition of the indicated enzymatic activity) were calculated for ChT-L and PGPH peptidases. Kd (dissociation constant) and Bmax (maximal activation effect achieved; in % above the control activity) values were calculated for the T-L peptidase. Mean±SD from n=2 or 3 experiments, or data from representative experiments set in duplicates or triplicates, are presented in the table. All three peptidase activities changed by no more than ±20%, without a concentration-dependent trend, upon treatment with up to 10 μM of rapamycin unrelated mTOR inhibitors PI-103 or NVP-BEZ235, in two independent experiments.

[3] = biological target: T3, human 20S proteasome, T-L peptidase; assay: T-L peptidase activity of purified human 20S proteasome (BocLRR-MCA); type: biochemical; settings: for Kd: activation of T-L peptidase; for Bmax [%]: T-L: maximal activation effect, % above the control activity
T3 construct: purchased Enzo LifeSciences
Method: as §1, §2

[4] = biological target: T4, 20S core with 19S, 11S, tRpt5 or tPA200; assay: Activation of 20S core ChT-L activity by α face ligands (19S, 11S, tRpt5, tPA200); type: biochemical, human
T4 construct: purchased Enzo LifeSciences (20S, 11S); Boston Biochemicals (19S complex)
Method: as §1
De novo assembly of 19S from subunits is a complex process assisted by chaperones. In vitro, and likely also in cells, the 26S can also be reconstructed from 20S and the already-assembled 19S particle in the presence of ATP (Smith et al., 2005). Enhancement of the peptidase activities of the core proteasome is an established test for efficiency of the in vitro reconstruction. […] In contrast, a pretreatment of 20S with 5 μM rapamycin before adding ATP and 19S totally abrogated the activation, leaving the proteasome almost 40% inhibited instead (FIG. 6).

20S proteasome α face = system: T5, 20S proteasome α face; assay: AFM imaging of open/closed conformers of 20S proteasome α face; set-up: species or system human; settings: 10 μM compound
T5 construct: purchased Enzo LifeSciences
Method: AFM imaging of the 20S proteasomes were performed as previously described, in tapping (oscillating) mode in liquid (Osmulski et al., 2009 and Gaczynska and Osmulski, 2011). In short, 3 μL of proteasome preparations diluted to nanomolar concentration were deposited on a freshly cleaved muscovite mica surface. After 2 min incubation allowing electrostatic attachment of the protein particles to mica the droplet was overlaid with 30 microL of 50 mM Tris-HCl buffer (pH 7.0) and mounted in the wet chamber of a MultiMode NanoScope Ma (Bruker Corp.). Oxide-sharpened silicon nitride tips on cantilevers with a nominal spring constant 0.32 N/m (Bruker Corp.) were used to image 1 μm^2 fields in the height mode, with a scan rate of 3.05 Hz. The excitation frequency was manually tuned to 9-10 kHz, with a drive voltage of 200-500 mV and a relatively high set point (1.6 V to 1.9 V) to assure tapping with low, non-destructive force. […] As the inventors established previously, such resolution was sufficient to detect distinct conformations of the α face, covered by six scan lines. Multiple fields were scanned for each sample to collect images of hundreds of particles. Selected fields were repeatedly scanned to monitor changes in topography of the same particles for prolonged time. Inhibitors and the SucLLVY-MCA substrate were diluted in 10 μL of the imaging buffer and directly injected into the chamber. Raw images are presented, with a standard plain-fit and flattening (NanoScope software v.5.12) used as the only processing tools. For display purposes the brightness and contrast of the images was adjusted with the Nanoscope software or with Adobe Photoshop (Adobe Systems Inc.), and outlier scan lines were occasionally manually removed (Nanoscope software). Top view (“standing”, rounded) proteasomes were distinguished from the minor population of side-view (“lying”, rectangular) particles as described, by comparison of their length—to width ratios (Osmulski et al., 2009). The dimensions of particles were approximated and a shape of the α face in top-view proteasomes was judged with the help of a section tool in the Nanoscope v.5.12 or SPIP v.6.02 software (Image Metrology).
For this purpose, the inventors used the noninvasive tapping mode atomic force microscopy (AFM) in liquid, the imaging technique suitable for analysis of surface topography of macromolecules in their native state with a nanometer-scale practical resolution. The inventors established before that AFM imaging is a useful tool for studying structural dynamics of the 20S α face (Osmulski et al., 2009, Gaczynska et al., 2003; Gaczynska et al., 2011). They acquired and analyzed images of hundreds of single native, fully active 20S molecules. The majority of particles were in top-view (“standing”) position conveniently allowing for imaging of their α faces. […] Following previous extensive studies, the inventors refer to the two forms as “closed-gate” and “open-gate” proteasomes, respectively (Osmulski et al., 2009). As described before, the inventors used the shape of sections carried out in four directions through the top portion of the surface topography of the α ring to distinguish between the two forms. In short, the particle was classified as closed if all four sections were cone-shaped. In contrast, the particle was classified as open if all sections presented a dip surrounded by a rim (FIG. 5A) (Osmulski, et al., 2009). The same particles imaged in consecutive scans were able to assume either closed or open conformations, however the cone-shaped particles were always more abundant than crater-shaped, and accounted for about three-quarters of the imaged molecules (FIG. 5B). Addition of rapamycin to the imaged particles remarkably changed the partition of forms. […]

Molecule: CO[C@H]1C[C@@H]2CC[C@@H](C)[C@@](O)(O2)C(=O)C(=O)N2CCCC[C@H]2C(=O)O[C@H]([C@H](C)C[C@@H]2CC[C@@H](OP(C)(C)=O)[C@H](OC)C2)CC(=O)[C@H](C)/C=C(\C)[C@@H](O)[C@@H](OC)C(=O)[C@H](C)C[C@H](C)/C=C/C=C/C=C/1C [ridaforolimus]
- IC50 [1]: 2.9 ± 0.5 µM
- IC50 [2]: 0.43 ± 0.11 µM
- Kd [3]: 0.11 µM
- Bmax [%]: T-L [3]: 114%

Molecule: CO[C@H]1C[C@@H]2CC[C@@H](C)[C@@](O)(O2)C(=O)C(=O)N2CCCC[C@H]2C(=O)O[C@H]([C@H](C)C[C@@H]2CC[C@@H](OCCO)[C@H](OC)C2)CC(=O)[C@H](C)/C=C(\C)[C@@H](O)[C@@H](OC)C(=O)[C@H](C)C[C@H](C)/C=C/C=C/C=C/1C [everolimus]
- IC50 [1]: 2.5 ± 0.7 µM
- IC50 [2]: 0.48 ± 0.11 µM
- Kd [3]: 0.07 µM
- Bmax [%]: T-L [3]: 93%

Molecule: 11S: 11S proteasome activator complex PA28/REG
- increase of ChT-L activity by protein complex ([4]; 1:1 molar ratio with 20S): 8 fold

Molecule: CO[C@H]1C[C@@H]2CC[C@@H](C)[C@@](O)(O2)C(=O)C(=O)N2CCCC[C@H]2C(=O)O[C@H]([C@H](C)C[C@@H]2CC[C@@H](O)[C@H](OC)C2)CC(=O)[C@H](C)/C=C(\C)[C@@H](O)[C@@H](OC)C(=O)[C@H](C)C[C@H](C)/C=C/C=C/C=C/1C [rapamycin]
- remaining ChT-L activity ([1]; 2 μM rapamycin alone): 70%
- ChT-L peptidase activity ([1]; 2 μM, % of DMSO control, representative experiment): 52%
- ChT-L peptidase activity after 10-fold dilution ([1]; after incubation with 2 μM, 10-fold dilution): 99%
- IC50 [1]: 1.9 ± 0.2 µM
- Ki ([1]; mixed inhibition model): 490 nM
- PGPH peptidase activity ([2]; 0.2 μM, % of control): 48%
- PGPH peptidase activity after 10-fold dilution ([2]; after incubation with 0.2 μM, 10-fold dilution): 96%
- IC50 [2]: 0.41 ± 0.03 µM
- Ki ([2]; noncompetitive inhibition): 250 nM
- Kd [3]: 0.14 µM
- Bmax [%]: T-L [3]: 83%
- inhibition of ChT-L activity, 20S pretreated before ATP and 19S ([4]; 5 μM, 19S 1:1): ~40%
- inhibition of proteasome in presence of tPA200 ([4]; 10 μM compound, 10 μM tPA200): 50%

Molecule: Oc1cccc(-c2nc(N3CCOCC3)c3oc4ncccc4c3n2)c1 [PI-103]
- closed conformers (20S proteasome α face): 74%±4%
- closed conformers after substrate (20S proteasome α face; then SucLLVY-MCA 100 μM): 29%±5%
- effect on activation of 20S with 19S ([4]; 5 μM): no detectable effects

Molecule: CO[C@H]1C[C@@H]2CC[C@@H](C)[C@@](O)(O2)C(=O)C(=O)N2CCCC[C@H]2C(=O)O[C@H]([C@H](C)C[C@@H]2CC[C@@H](OC(=O)C(C)(CO)CO)[C@H](OC)C2)CC(=O)[C@H](C)/C=C(\C)[C@@H](O)[C@@H](OC)C(=O)[C@H](C)C[C@H](C)/C=C/C=C/C=C/1C [temsirolimus]
- IC50 [1]: 2.1 ± 0.2 µM
- IC50 for ChT-L lower than rapamycin ([1]; relative to rapamycin): ~40%
- IC50 [2]: 0.36 ± 0.03 µM
- IC50 for PGPH lower than rapamycin ([2]; relative to rapamycin): 20%
- Kd [3]: 0.19 µM
- Bmax [%]: T-L [3]: 81%

Molecule: C=CC[C@@H]1/C=C(\C)C[C@H](C)C[C@H](OC)[C@H]2O[C@@](O)(C(=O)C(=O)N3CCCC[C@H]3C(=O)O[C@H](/C(C)=C/[C@@H]3CC[C@@H](O)[C@H](OC)C3)[C@H](C)[C@@H](O)CC1=O)[C@H](C)C[C@@H]2OC [FK-506]
- IC50 [1]: > 20 µM
- IC50 [2]: 0.93 ± 0.04 µM
- Kd [3]: 1.14 µM
- Bmax [%]: T-L [3]: 257%
- lowering of activation by tRpt5 ([4]; 10 μM derivative, 10 μM tRpt5): about 30%
- inhibition of proteasome with or without tPA200 ([4]; 10 μM derivative, presence or absence of 10 μM tPA200): about 40%

Molecule: CC[C@@H]1/C=C(\C)C[C@H](C)C[C@H](OC)[C@H]2O[C@@](O)(C(=O)C(=O)N3CCCC[C@H]3C(=O)O[C@H](/C(C)=C/[C@@H]3CC[C@H](Cl)[C@H](OC)C3)[C@H](C)[C@@H](O)CC1=O)[C@H](C)C[C@@H]2OC [pimecrolimus]
- remaining ChT-L activity ([1]; 5 μM pimecrolimus alone): 82%
- IC50 [1]: > 20 µM
- IC50 [2]: 0.57 ± 0.12 µM
- IC50 for PGPH increase as compared with rapamycin ([2]; relative to rapamycin): 40%
- Kd [3]: 1.82 µM
- Bmax [%]: T-L [3]: 483%
- closed conformers (20S proteasome α face): ~40%
- open conformers (20S proteasome α face): about 60%
